{"source": "patent US20190177430A1", "about": "“Methods of Treating Cancers With Chemotherapy With Reduced Toxicity” (The Wistar Institute of Anatomy and Biology, priority 2016, published 2019)", "origin": "cited, not measured here", "details": "dosages of 250 mg/m^2", "data": [{"smiles": "COc1cccc2c1C(=O)c1c(O)c3c(c(O)c1C2=O)C[C@@](O)(C(=O)CO)C[C@@H]3O[C@H]1C[C@H](N)[C@H](O)[C@H](C)O1", "note": "[Doxorubicin, (7S,9S)-7-[(2R,4S,5S,6S)-4-amino-5-hydroxy-6-methyloxan-2-yl]oxy-6,9,11-trihydroxy-9-(2-hydroxyacetyl)-4-methoxy-8,10-dihydro-7H-tetracene-5,12-dione]", "values": [{"measurement": "Doxorubicin-induced cardiac dysfunction, share of treated patients", "value": 9, "unit": "%"}]}]}
